Test results published in patent US8034939B2, “Isoindole derivatives, compositions containing same, preparation thereof and pharmaceutical uses thereof in particular as inhibitors of chaperone protein Hsp90 activities” (Aventis Pharma S.A.., priority 2005, dated 2011).

Biological target: Hsp82 (Saccharomyces cerevisiae, UniProt P02829)
Experiment: Hsp82 ATPase activity, PK/LDH coupled enzymatic assay (also malachite green method)
Type: biochemical
Conditions: 1 μM Hsp82, 250 μM ATP, 37° C.
Protocol: The […] released during the hydrolysis of ATP by the ATPase activity of Hsp82 is quantified by the malachite green method. In the presence of this reagent, formation of the inorganic phosphate-molybdate-malachite green complex occurs, which complex absorbs at a wavelength of 620 nm. The products to be evaluated are incubated in a reaction volume of 30 μl, in the presence of 1 μM Hsp82 and of […] of substrate (ATP) in a buffer composed of 50 mM Hepes-NaOH (pH 7.5), 1 mM DTT, 5 mM MgCl2 and 50 mM KCl at 37° C. for 60 minutes. In parallel, a range of inorganic phosphate between 1 and 40 μM is prepared in the same buffer. […] After incubation at ambient temperature for 20 minutes, the absorbance of the various wells is measured using a microplate reader at 620 nm. The concentration of […] of each sample is then calculated from the standard curve. The ATPase activity of Hsp82 is expressed as concentration of inorganic phosphate produced in 60 minutes. The effect of the various products tested is expressed as percentage inhibition of the ATPase activity. […]
The products tested are incubated in a reaction volume of 100 μl of buffer composed of 100 mM Hepes-NaOH (pH 7.5), 5 mM MgCl2, 1 mM DTT, 150 mM KCl, 0.3 mM NADH, 2.5 mM PEP and 250 μM ATP. […] The enzymatic activity of Hsp82 is then measured, continuously, in a microplate reader, at 37° C., at the wavelength of 340 nm. […]

Sequence of Hsp82 (P02829 whole entry): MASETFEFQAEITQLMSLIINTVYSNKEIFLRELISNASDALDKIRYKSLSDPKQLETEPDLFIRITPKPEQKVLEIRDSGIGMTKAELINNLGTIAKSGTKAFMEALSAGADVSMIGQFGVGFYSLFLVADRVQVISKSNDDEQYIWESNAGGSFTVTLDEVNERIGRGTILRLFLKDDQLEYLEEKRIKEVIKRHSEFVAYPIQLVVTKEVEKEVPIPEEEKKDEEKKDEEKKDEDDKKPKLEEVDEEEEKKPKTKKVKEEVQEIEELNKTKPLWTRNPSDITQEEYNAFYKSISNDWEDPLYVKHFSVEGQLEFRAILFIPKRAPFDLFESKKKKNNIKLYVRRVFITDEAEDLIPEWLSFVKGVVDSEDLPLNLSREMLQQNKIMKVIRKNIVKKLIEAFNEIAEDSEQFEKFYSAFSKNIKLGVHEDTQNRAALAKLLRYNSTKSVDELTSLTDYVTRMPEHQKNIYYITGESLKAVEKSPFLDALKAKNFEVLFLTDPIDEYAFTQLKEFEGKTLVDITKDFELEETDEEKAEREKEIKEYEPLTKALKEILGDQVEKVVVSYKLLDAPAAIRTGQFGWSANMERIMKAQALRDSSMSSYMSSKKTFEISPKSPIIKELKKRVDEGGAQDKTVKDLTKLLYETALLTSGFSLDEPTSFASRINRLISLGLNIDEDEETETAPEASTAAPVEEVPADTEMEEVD

Row | Compound | IC50 [µM]
1 | O=C1c2ccccc2C2=C(c3nc4ccc(O)cc4[nH]3)CCCN12 [Example 2, 1-{1-H-6-hydroxybenzimidazol-2-yl}-3,4-dihydro-2H-pyrido[2,1-a]isoindole-6-one] | 10 to 100
2 | O=C1c2ccccc2C2=C(c3nc4ccncc4[nH]3)CCCN12 [Example 1, 1-{3-H-imidazo[4,5-c]pyridin-2-yl}-3,4-dihydro-2H-pyrido[2,1-a]-isoindole-6-one] | 1 to 10
